Results: ChEMBL document CHEMBL1201862, “PubChem BioAssay data set” (2004)
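Cultured in 96-well plates, cells were exposed to test compound for 48 hours across five concentrations. GI50 marks 50% less growth.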 Activity calls are given as the source filed them. No stated cut-off is given here; in the data, active = GI50 up to about 1.1 µM and inactive = higher.

Experiments:
Assay in all cases: NCI tumour cell line growth inhibition, 48 h
COLO 205 = system: COLO 205
786-0 = system: 786-0
CCRF-CEM = system: CCRF-CEM
MDA-MB-435 = system: MDA-MB-435
SK-OV-3 = system: SK-OV-3
SNB-19 = system: SNB-19
SR = system: SR
IGROV-1 = system: IGROV-1
A498 = system: A498
Malme-3M = system: Malme-3M
M14 = system: M14
MDA-MB-231 = system: MDA-MB-231
CAKI-1 = system: CAKI-1
BT-549 = system: BT-549
OVCAR-5 = system: OVCAR-5
NCI-H226 = system: NCI-H226
NCI/ADR-RES = system: NCI/ADR-RES
OVCAR-3 = system: OVCAR-3
SK-MEL-28 = system: SK-MEL-28
DU-145 = system: DU-145
UACC-62 = system: UACC-62
LOX IMVI = system: LOX IMVI
HL-60 = system: HL-60
HCC 2998 = system: HCC 2998
HOP-92 = system: HOP-92
SK-MEL-5 = system: SK-MEL-5
U-251 = system: U-251
SNB-75 = system: SNB-75
UO-31 = system: UO-31
Hs-578T = system: Hs-578T
T47D = system: T47D
TK-10 = system: TK-10
HCT-116 = system: HCT-116
MDA-N = system: MDA-N
NCI-H522 = system: NCI-H522
EKVX = system: EKVX
UACC-257 = system: UACC-257
K562 = system: K562
SF-539 = system: SF-539
HCT-15 = system: HCT-15
SF-295 = system: SF-295
PC-3 = system: PC-3
OVCAR-8 = system: OVCAR-8
MCF7 = system: MCF7
KM12 = system: KM12
HT-29 = system: HT-29
NCI-H23 = system: NCI-H23
SK-MEL-2 = system: SK-MEL-2
SN12C = system: SN12C
A549 = system: A549
HOP-62 = system: HOP-62
ACHN = system: ACHN
SF-268 = system: SF-268
SW-620 = system: SW-620
OVCAR-4 = system: OVCAR-4
NCI-H460 = system: NCI-H460
RXF 393 = system: RXF 393
MOLT-4 = system: MOLT-4
RPMI-8226 = system: RPMI-8226

For CC(C)C(C/C=C1/CC(CO)(COC(=O)CC(C(C)C)C(C)C)OC1=O)C(C)C (configuration not stated), the GI50 (COLO 205) was 0.0811 µM (active), the GI50 (786-0) was 5.61 µM (inactive) and the GI50 (CCRF-CEM) was 2.74 µM (inactive). For the same compound, the GI50 (MDA-MB-435) was 0.475 µM (active), the GI50 (SK-OV-3) was 16.7 µM (inactive) and the GI50 (SNB-19) was 12.5 µM (inactive). The GI50 (SR) was 17.1 µM (inactive), the GI50 (IGROV-1) was 17.1 µM (inactive) and the GI50 (A498) was 2.98 µM (inactive). The GI50 (Malme-3M) was 10.7 µM (inactive), the GI50 (M14) was 12.5 µM (inactive) and the GI50 (MDA-MB-231) was 4.21 µM (inactive). The GI50 (CAKI-1) was 2.15 µM (inactive), the GI50 (BT-549) was 15 µM (inactive) and the GI50 (OVCAR-5) was 9.42 µM (inactive). For the same compound, the GI50 (NCI-H226) was 8.93 µM (inactive), the GI50 (NCI/ADR-RES) was 16 µM (inactive) and the GI50 (OVCAR-3) was 13.8 µM (inactive). For the same compound, the GI50 (SK-MEL-28) was 14.2 µM (inactive), the GI50 (DU-145) was 13.2 µM (inactive) and the GI50 (UACC-62) was 15.7 µM (inactive). The GI50 (LOX IMVI) was 5.27 µM (inactive), the GI50 (HL-60) was 0.0931 µM (active) and the GI50 (HCC 2998) was 2.89 µM (inactive). The GI50 (HOP-92) was 0.998 µM (active), the GI50 (SK-MEL-5) was 10.4 µM (inactive) and the GI50 (U-251) was 11.6 µM (inactive). The GI50 (SNB-75) was 1.78 µM (inactive), the GI50 (UO-31) was 2.86 µM (inactive) and the GI50 (Hs-578T) was 0.102 µM (active). For the same compound, the GI50 (T47D) was 0.982 µM (active), the GI50 (TK-10) was 2.08 µM (inactive) and the GI50 (HCT-116) was 16.2 µM (inactive). The GI50 (MDA-N) was 11.5 µM (inactive), the GI50 (NCI-H522) was 12.9 µM (inactive) and the GI50 (EKVX) was 1.79 µM (inactive). The GI50 (UACC-257) was 16 µM (inactive), the GI50 (K562) was 0.389 µM (active) and the GI50 (SF-539) was 11.2 µM (inactive). The GI50 (HCT-15) was 15.6 µM, the GI50 (SF-295) was 0.259 µM (active) and the GI50 (PC-3) was 4.85 µM (inactive). The GI50 (OVCAR-8) was 16.1 µM (inactive), the GI50 (MCF7) was 13.6 µM (inactive) and the GI50 (KM12) was 6.82 µM (inactive). The GI50 (HT-29) was 16.3 µM (inactive), the GI50 (NCI-H23) was 14.7 µM (inactive) and the GI50 (SK-MEL-2) was 15.2 µM (inactive). For the same compound, the GI50 (SN12C) was 14.2 µM (inactive), the GI50 (A549) was 0.298 µM (active) and the GI50 (HOP-62) was 1.34 µM (inactive). The GI50 (ACHN) was 1.79 µM (inactive), the GI50 (SF-268) was 10.6 µM (inactive) and the GI50 (SW-620) was 0.991 µM (active). The GI50 (OVCAR-4) was 17.3 µM (inactive), the GI50 (NCI-H460) was 2.44 µM (inactive) and the GI50 (RXF 393) was 11.1 µM (inactive).
Clc1ccc(N/N=C(\c2ccccc2)c2ccccn2)nc1 was tested, and the GI50 (COLO 205) was < 0.01 µM (active), the GI50 (786-0) was 0.0367 µM (active) and the GI50 (CCRF-CEM) was < 0.01 µM (active). The GI50 (MDA-MB-435) was 0.627 µM (active), the GI50 (SK-OV-3) was 0.282 µM (active) and the GI50 (SNB-19) was 1.17 µM (inactive). For the same compound, the GI50 (SR) was 0.114 µM (active), the GI50 (IGROV-1) was 0.0239 µM (active) and the GI50 (A498) was 49.8 µM (inactive). For the same compound, the GI50 (Malme-3M) was < 0.01 µM (active), the GI50 (M14) was < 0.01 µM (active) and the GI50 (MDA-MB-231) was < 0.0187 µM (active). The GI50 (CAKI-1) was < 0.01 µM (active), the GI50 (BT-549) was 1.85 µM (inactive) and the GI50 (OVCAR-5) was 0.895 µM (active). For the same compound, the GI50 (NCI-H226) was 0.0891 µM (active), the GI50 (NCI/ADR-RES) was < 0.0165 µM (active) and the GI50 (OVCAR-3) was < 0.0121 µM (active). The GI50 (SK-MEL-28) was 2.67 µM (inactive), the GI50 (DU-145) was 0.333 µM (active) and the GI50 (UACC-62) was 0.214 µM (active). The GI50 (HL-60) was < 0.01 µM (active), the GI50 (HCC 2998) was 3.81 µM (inactive) and the GI50 (HOP-92) was 0.101 µM (active). For the same compound, the GI50 (SK-MEL-5) was 0.0578 µM (active), the GI50 (U-251) was 0.031 µM (active) and the GI50 (SNB-75) was 0.316 µM (active). For the same compound, the GI50 (UO-31) was 0.0494 µM (active), the GI50 (Hs-578T) was 0.456 µM (active) and the GI50 (T47D) was < 0.01 µM (active). The GI50 (HCT-116) was < 0.0148 µM (active), the GI50 (MDA-N) was 2.48 µM (inactive) and the GI50 (NCI-H522) was < 0.01 µM (active). For the same compound, the GI50 (MOLT-4) was < 0.01 µM (active), the GI50 (EKVX) was < 0.01 µM (active) and the GI50 (UACC-257) was < 0.0158 µM (active). For the same compound, the GI50 (SF-539) was 0.622 µM (active), the GI50 (HCT-15) was under 0.0183 µM and the GI50 (SF-295) was 0.323 µM (active). The GI50 (PC-3) was 0.0463 µM (active), the GI50 (RPMI-8226) was 0.147 µM (active) and the GI50 (OVCAR-8) was < 0.01 µM (active). For the same compound, the GI50 (MCF7) was < 0.01 µM (active), the GI50 (KM12) was 0.348 µM (active) and the GI50 (HT-29) was < 0.01 µM (active). The GI50 (NCI-H23) was 0.0526 µM (active), the GI50 (SK-MEL-2) was 3.85 µM (inactive) and the GI50 (SN12C) was < 0.01 µM (active). For the same compound, the GI50 (A549) was 0.387 µM (active), the GI50 (HOP-62) was 1.12 µM (active) and the GI50 (ACHN) was < 0.01 µM (active). For the same compound, the GI50 (SF-268) was 0.0258 µM (active), the GI50 (SW-620) was < 0.01 µM (active) and the GI50 (OVCAR-4) was 3.04 µM (inactive). The GI50 (RXF 393) was 2.2 µM (inactive).
